For 43 compounds, IC50 results are on record in patent US20230127046A1, “G9a INHIBITOR” (RIKEN, priority 2019, published 2023).

The structures appear in SMILES notation.

Usually IC50 stands for the point on the concentration scale where inhibition reaches its midpoint.

The assay has as its target T1, recombinant human G9a protein (Homo sapiens, UniProt Q96KQ7).
T1 construct: purchased BPS Bioscience Inc. #51001
T1 sequence (Q96KQ7 785-1210 limits assumed): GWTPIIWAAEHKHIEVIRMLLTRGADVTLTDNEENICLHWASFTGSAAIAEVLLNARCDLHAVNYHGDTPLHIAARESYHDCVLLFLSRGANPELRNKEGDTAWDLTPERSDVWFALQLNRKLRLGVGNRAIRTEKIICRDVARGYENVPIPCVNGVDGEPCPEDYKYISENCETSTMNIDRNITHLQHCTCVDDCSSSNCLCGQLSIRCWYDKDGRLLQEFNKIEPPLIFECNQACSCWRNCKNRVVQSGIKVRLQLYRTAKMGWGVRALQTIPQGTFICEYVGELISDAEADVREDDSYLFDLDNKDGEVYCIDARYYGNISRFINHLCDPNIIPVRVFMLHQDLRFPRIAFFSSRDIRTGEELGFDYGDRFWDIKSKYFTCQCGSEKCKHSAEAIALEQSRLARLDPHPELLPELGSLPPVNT
Put plainly: G9a inhibitory activity test (ALPHA). The format is biochemical. The conditions noted are these: read-out: Inhibitory activity (G9a IC50). The procedure, abridged:
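Human G9a (0.05 to 0.1 nM) in Tris pH 9.0 buffer preincubated with compound 10 min, then biotinylated histone H3 (1-21) peptide and SAM mixed 1:1 from 500 nM and 150 μM solutions, 1 h at room temperature. H3K9me2 detected by AlphaLISA acceptor/streptavidin donor beads; IC50 from percent inhibition relative to no-compound and no-enzyme controls.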

Regarding `CCCCC(NC(=O)c1sc(-c2ccccc2)nc1C)C(=O)Nc1ccc(OC2CCN(C)CC2)nc1` (stereo not shown) [Example 11-10], the IC50 was at least 200 nM.

For `CCCCC(NC(=O)c1nc(-c2ccccc2)sc1C)C(=O)Nc1ccc(OC2CCN(C)CC2)nc1` (stereo not shown) [Example 11-11], the IC50 is at least 200 nM.

For the compound `CCCCC(NC(=O)C(c1ccccc1)c1ccccc1)C(=O)Nc1ccc(OC2CCN(C)CC2)nc1` (stereo not shown) [Example 12-1, 2-[(2,2-diphenylacetyl)amino]-N-[6-(1-methylpiperidin-4-yl)oxypyridin-3-yl]hexane amide], the IC50 fell in the range of 50 to 200 nM.

Regarding `Cc1c(C(=O)N[C@@H](CCC2CC2)C(=O)N[C@@H](C)c2ccccc2)[nH]c2c1C(=O)CC(C)(C)C2` [Example 13-1, N-((S)-4-cyclopropyl-1-oxo-1-(((S)-1-phenylethyl)amino)butan-2-yl)-3,6,6-trimethyl-4-oxo-4,5,6,7-tetrahydro-1H-indole-2-carboxamide], the IC50 was below 50 nM.

In the case of `Cc1c(C(=O)N[C@H](CCC2CC2)C(=O)N[C@@H](C)c2ccccc2)[nH]c2c1C(=O)CC(C)(C)C2` [Example 13-2, N-((R)-4-Cyclopropyl-1-oxo-1-(((S)-1-phenylethyl)amino)butan-2-yl)-3,6,6-trimethyl-4-oxo-4,5,6,7-tetrahydro-1H-indole-2-carboxamide], the IC50 was at least 200 nM.

For `Cc1c(C(=O)N[C@@H](CCC2CC2)C(=O)N(C)[C@H](C)c2ccccc2)[nH]c2c1C(=O)CC(C)(C)C2` [Example 13-3], the IC50 is at least 200 nM.

`Cc1c(C(=O)N[C@H](CCC2CC2)C(=O)N(C)[C@H](C)c2ccccc2)[nH]c2c1C(=O)CC(C)(C)C2` [Example 13-4]: the IC50 was at least 200 nM.

As for `Cc1c(C(=O)N[C@@H](CCC2CC2)C(=O)N(C)[C@@H](C)c2ccccc2)[nH]c2c1C(=O)CC(C)(C)C2` [Example 13-5], the IC50 was at least 200 nM.

Consider `Cc1c(C(=O)N[C@H](CCC2CC2)C(=O)N(C)[C@@H](C)c2ccccc2)[nH]c2c1C(=O)CC(C)(C)C2` [Example 13-6], for which the concentration for half-maximal inhibition (IC50) is at least 200 nM.

As to `CCc1cc(C)ccc1NC(=O)C(CCC1CC1)NC(=O)c1[nH]c2c(c1C)C(=O)CC(C)(C)C2` (stereo not shown) [Example 14-1, N-[4-cyclopropyl-1-(2-ethyl-4-methylamino)-1-oxobutan-2-yl]-3,6,6-trimethyl-4-oxo-5,7-dihydro-1H-indole-2-carboxamide], the IC50 was below 50 nM.

`CCCCC(NC(=O)c1[nH]c2c(c1C)C(=O)CC(C)(C)C2)C(=O)Nc1ccc(C)cc1CC` (stereo not shown) [Example 14-2]: the half-inhibitory concentration (IC50) is below 50 nM.

Consider `Cc1c(C(=O)N[C@@H](CCC2CC2)C(=O)Nc2ccc(C#N)cc2)[nH]c2c1C(=O)CC(C)(C)C2` [Example 15-1, N-[(2S)-1-(4-cyanoanilino)-4-cyclopropyl-1-oxobutan-2-yl]-3,6,6-trimethyl-4-oxo-5,7-dihydro-1H-indole-2-carboxamide], for which the IC50 is below 50 nM.

In the case of `CCc1cc(C#N)ncc1NC(=O)C(CCC1CC1)NC(=O)c1[nH]c2c(c1C)C(=O)CC(C)(C)C2` (stereo not shown) [Example 15-2], the IC50 is 50 to 200 nM.

`CCc1c(C(=O)N[C@@H](CCC2CC2)C(=O)Nc2ccc(C#N)cc2)[nH]c2c1C(=O)CC(C)(C)C2` [Example 15-3]: the IC50 was in the range of 50 to 200 nM.

On to `CC(C)c1c(C(=O)N[C@@H](CCC2CC2)C(=O)Nc2ccc(C#N)cc2)[nH]c2c1C(=O)CC(C)(C)C2` [Example 15-4], for which the IC50 is 50 to 200 nM.

As for `CCCCC(NC(=O)c1[nH]c2c(c1C)C(=O)CC(C)(C)C2)C(=O)NCc1ccc(CO)cc1` (stereo not shown) [Example 16, N-[1-[[4-(hydroxymethyl)phenyl]methylamino]-1-oxohexan-2-yl]-3,6,6-trimethyl-4-oxo-5,7-dihydro-1H-indole-2-carboxamide], the half-maximal inhibitory concentration (IC50) is at least 200 nM.

As to `CCCC[C@@H](CNc1ccccc1)NC(=O)c1[nH]c2c(c1C)C(=O)CC(C)(C)C2` [Example 17-1, (S)-3,6,6-trimethyl-4-oxo-N-(1-(phenylamino)hexan-2-yl)-4,5,6,7-tetrahydro-1H-indole-2-carboxamide], the IC50 is at least 200 nM.

On to `CCCC[C@@H](CNc1ccc(N2CCN(C)CC2)cc1)NC(=O)c1[nH]c2c(c1C)C(=O)CC(C)(C)C2` [Example 17-2], for which the IC50 was at least 200 nM.

In the case of `CCCCC(NC(=O)c1[nH]c2c(c1C)C(=O)CC(C)(C)C2)C(=O)Nc1cccc(CN(C)C)c1` (stereo not shown) [Example 18-1, N-[1-[3-[(dimethylamino)methyl]anilino]-1-oxohexan-2-yl]-3,6,6-trimethyl-4-oxo-5,7-dihydro-1H-indole-2-carboxamide], the IC50 was below 50 nM.

Turning to `CCCCC(NC(=O)c1[nH]c2c(c1C)C(=O)CC(C)(C)C2)C(=O)Nc1cccc(CN2CCC(F)CC2)c1` (stereo not shown) [Example 18-2], the IC50 is below 50 nM.

With `CCCCC(NC(=O)c1[nH]c2c(c1C)C(=O)CC(C)(C)C2)C(=O)Nc1ccc(CN(C)C)cc1` (stereo not shown) [Example 18-3], the IC50 is below 50 nM.

As for `CCCCC(NC(=O)c1[nH]c2c(c1C)C(=O)CC(C)(C)C2)C(=O)NCc1ccc(CNC(C)(C)C)cc1` (stereo not shown) [Example 18-4], the IC50 is below 50 nM.

On to `CCCCC(NC(=O)c1[nH]c2c(c1C)C(=O)CC(C)(C)C2)C(=O)NCc1ccc(CN2CCOCC2)cc1` (stereo not shown) [Example 18-5], for which the IC50 was at least 200 nM.

On to `CCCCC(NC(=O)c1[nH]c2c(c1C)C(=O)CC(C)(C)C2)C(=O)NCc1ccc(CNC)cc1` (stereo not shown) [Example 18-6], for which the IC50 was below 50 nM.

For `CCCCC(NC(=O)c1[nH]c2c(c1C)C(=O)CC(C)(C)C2)C(=O)NCc1ccc(CN2CCCC(F)(F)C2)cc1` (stereo not shown) [Example 18-7], the IC50 was at least 200 nM.

For `CCCCC(NC(=O)c1[nH]c2c(c1C)C(=O)CC(C)(C)C2)C(=O)NCc1ccc(CN2CCC(F)(F)CC2)cc1` (stereo not shown) [Example 18-8], the IC50 is at least 200 nM.

For `CCCCC(NC(=O)c1[nH]c2c(c1C)C(=O)CC(C)(C)C2)C(=O)NCc1ccc(CN2CCCCC2)cc1` (stereo not shown) [Example 18-9], the IC50 is below 50 nM.

`CCCCC(NC(=O)c1[nH]c2c(c1C)C(=O)CC(C)(C)C2)C(=O)NCc1ccc(CN2CCC(F)CC2)cc1` (stereo not shown) [Example 18-10]: the IC50 was below 50 nM.

On to `CCCCC(NC(=O)c1[nH]c2c(c1C)C(=O)CC(C)(C)C2)C(=O)NCc1ccc(CN2CCCC2)cc1` (stereo not shown) [Example 18-11], for which the IC50 was below 50 nM.

In the case of `CCCCC(NC(=O)c1[nH]c2c(c1C)C(=O)CC(C)(C)C2)C(=O)NCc1ccc(CN(CC)CC)cc1` (stereo not shown) [Example 18-12], the IC50 was below 50 nM.

For `CCCCC(NC(=O)c1[nH]c2c(c1C)C(=O)CC(C)(C)C2)C(=O)NCc1ccc(CN2CCC(C)(C)CC2)cc1` (stereo not shown) [Example 18-13], the IC50 was below 50 nM.

As to `CCCCC(NC(=O)c1[nH]c2c(c1C)C(=O)CC(C)(C)C2)C(=O)NCc1ccc(CN2CCC2)cc1` (stereo not shown) [Example 18-14], the IC50 was below 50 nM.

Turning to `CCCCC(NC(=O)c1[nH]c2c(c1C)C(=O)CC(C)(C)C2)C(=O)NCc1ccc(CCCN)cc1` (stereo not shown) [Example 19, N-[1-[[4-(3-aminopropyl)phenyl]methylamino]-1-oxohexan-2-yl]-3,6,6-trimethyl-4-oxo-5,7-dihydro-1H-indole-2-carboxamide], the half-maximal inhibitory concentration (IC50) was below 50 nM.

Consider `CCCCC(NC(=O)c1[nH]c2c(c1C)C(=O)CC(C)(C)C2)C(=O)Nc1ccc(C(N)=O)cc1` (stereo not shown) [Example 20-1, N-[1-(4-carbamoylanilino)-1-oxohexan-2-yl]-3,6,6-trimethyl-4-oxo-5,7-dihydro-1H-indole-2-carboxamide], for which the IC50 was at least 200 nM.

For the compound `CCCCC(NC(=O)c1[nH]c2c(c1C)C(=O)CC(C)(C)C2)C(=O)NCc1ccc(C(=O)N(C)C)cc1` (stereo not shown) [Example 20-2], the IC50 was at least 200 nM.

Turning to `CCCCC(NC(=O)c1[nH]c2c(c1C)C(=O)CC(C)(C)C2)C(=O)Nc1ccc(N)cc1` (stereo not shown) [Example 21, N-[1-(4-aminoanilino)-1-oxohexan-2-yl]-3,6,6-trimethyl-4-oxo-5,7-dihydro-1H-indole-2-carboxamide], the half-inhibitory concentration (IC50) is at least 200 nM.

`CCCC[C@H](NC(=O)c1[nH]c2c(c1C)C(=O)CC(C)(C)C2)C(=O)NCc1ccc(N2CCN(CC(C)C)CC2)cc1` [Example 22-1]: the IC50 was at least 200 nM.

Turning to `CCCC[C@H](NC(=O)c1[nH]c2c(c1C)C(=O)CC(C)(C)C2)C(=O)NCc1ccc(N2CCN(CC)CC2)cc1` [Example 22-3], the IC50 is at least 200 nM.

In the case of `CCCC[C@H](NC(=O)c1[nH]c2c(c1C)C(=O)CC(C)(C)C2)C(=O)NCc1ccc(N2CCN(CCC)CC2)cc1` [Example 22-4], the IC50 is at least 200 nM.

With `CCCC[C@H](NC(=O)c1[nH]c2c(c1C)C(=O)CC(C)(C)C2)C(=O)NCc1ccc(N2CCN(CCCC)CC2)cc1` [Example 22-5], the IC50 lay within 50 to 200 nM.

Consider `CCCC[C@H](NC(=O)c1[nH]c2c(c1C)C(=O)CC(C)(C)C2)C(=O)NCc1ccc(N2CCN(CCO)CC2)cc1` [Example 23, (S)-N-(1-((4-(4-(2-hydroxyethyl)piperazin-1-yl)benzyl)amino)-1-oxohexan-2-yl)-3,6,6-trimethyl-4-oxo-4,5,6,7-tetrahydro-1H-indole-2-carboxamide], for which the IC50 is at least 200 nM.

With `CCCCC(NC(=O)c1[nH]c2c(c1C)C(=O)CC(C)(C)C2)C(=O)Nc1ccc(OCCNC)nc1` (stereo not shown) [Example 24-1, 3,6,6-trimethyl-N-[1-[[6-[2-(methylamino)ethoxy]pyridin-3-yl]amino]-1-oxohexan-2-yl]-4-oxo-5,7-dihydro-1H-indole-2-carboxamide], the half-maximal inhibitory concentration (IC50) fell in the range of 50 to 200 nM.

On to `CCCCC(NC(=O)c1[nH]c2c(c1C)C(=O)CC(C)(C)C2)C(=O)NCc1ccc(CN)cc1` (stereo not shown) [Example 24-2], for which the IC50 was below 50 nM.
